# Test results published in patent US7314888B1, “Compounds and medicinal use thereof” (Toyama Chemical Co., Ltd., priority 1998, dated 2008).
# Read-outs that look alike come from different tables or passages of the source. Bridge positions count the residues as written; N and C are the ends. Peptide text beside a SMILES is read from it.
# Tests used:
# [1] = target: T1, AP-1 complex (Fos/Jun peptide) (Homo sapiens, UniProt P01100+P05412); experiment: Activities on AP-1 binding reaction to recognition sequence (ELISA) using Fos/Jun peptide; conditions: read-out: Inhibition rate %
# T1 construct: made in house; host or cells: chemical peptide synthesis (no expression host)
# T1 sequence (P01100 137-200 limits assumed): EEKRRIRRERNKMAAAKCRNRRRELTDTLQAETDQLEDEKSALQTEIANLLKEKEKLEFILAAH
# T1 sequence (P05412 252-315 limits assumed): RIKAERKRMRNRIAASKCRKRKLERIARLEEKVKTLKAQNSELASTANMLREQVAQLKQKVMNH
# Method: (§1) Activities on AP-1 Binding Reaction to Recognition Sequence (ELISA)
# On the other hand, Jun peptide and N-terminal biotinylated tetraglycine Fos peptide containing a DNA-binding site [Nature, Vol. 373, Pages 257-261, 1995] were synthesized and separately dissolved in tris buffer (20 mM tris-hydrochloride (pH 7.5), 50 mM potassium chloride, 1 mM ethylenediaminetetraacetic acid, 10 mM magnesium chloride, 1 mM dithiothreitol, 0.5M guanidine hydrochloride, 30% glycerol). Equimolar quantities of both the solutions were mixed together, and the mixture was used as an AP-1 complex (Fos/Jun peptide). The AP-1 complex was added to avidin-coating 96-well ELISA plate (10 pmol/well), washed, and then blocked with bovine serum albumin. The product was used for binding assay using AP-1 complex.
# (§2) On the basis of the above-mentioned two coated AP-1, a digoxigenin-labeled double stranded oligonucleotide (22-mer) containing an AP-1 binding sequence ([…]) which has been synthesized elsewhere was reacted in the presence and absence of a sample at room temperature for 30-60 minutes in a binding reaction solution [Hepes buffer or 25 mM tris-hydrochloric acid (pH 7.9), 0.5 mM ethylenediaminetetraacetic acid, 0.05% Nonidet P-40, 10% glycerol]. After of the reaction, unbound labeled oligonucleotide washed out with Hepes buffer solution containing 0.05% of Tween-20. Then, an anti-digoxigenin antibody labeled with peroxidase was added, and reacted with the labeled oligonucleotide bound to AP-1. After washing out the excessive antibody with Hepes buffer containing 0.05% of Tween-20, the residue was reacted for a predetermined period of time in a 100 mM citrate buffer (pH 5.0) containing hydrogen peroxide by using o-phenylenediamine as a substrate. After adding-sulfuric acid solution to each well, absorbance (492 nm) was measured. Taking the absorbance in the absence of sample as 100%, inhibition rate of sample was calculated from the absorbance in the presence of sample.
# [2] = system: type II collagen-induced arthritis; experiment: Type II collagen-induced arthritis in mice; format: in vivo; conditions: for inhibition at 100 mg/kg: Mus musculus, po, 100 mg/kg orally, 37th day
# Method: Type II Collagen-Induced Arthritis in Mice The effect of the compound of Example 12 on the type II collagen-induced arthritis in mice was examined. As the animals, 8 weeks old male DBA/1J mice (Charles River Japan) were used. To 2 mg/mL solution of bovine type II collagen in 0.1 mol/L acetic acid (Kouken) was added an equivalent quantity of Freund complete adjuvant (Nacalai Tesque), and prepared an emulsion. 0.2 ml of the emulsion was subcutaneously injected into the tail root portion. On the 22nd day as counted from the day of first inoculation, the same treatment as above was repeated to induce arthritis. The compound was suspended in 0.5% methyl cellulose solution and administered orally at 100 mg/kg once every day from the 22nd day to the 36th day. To the control group (negative control group), a 0.5% methyl cellulose solution was administered similarly. Severity of the arthritis was evaluated in the following manner: score 0: no change score 1: swelling on one or two toes or slight swelling in the foreleg root or hindleg root only; score 2: swelling and rubor in more joints; score 3: extensive swelling over whole foreleg or hindleg; and total of the four legs was calculated. Taking the maximum score as 12, the arthritis score was calculated to evaluate the severity of arthritis. Regarding the destruction of joints and bones, X ray photographs of four paws were taken on the 37th day, and severity of destruction in the second to fifth articulationes interphalangeae, first to fifth articulationes metacarpophalangeae and metatarsophalangeae, and calcaneus was scored by 0 or 1 in accordance with presence or absence of destruction, and the severity of destruction in the carpus and tarsal was scored by 0 to 3. Total score for the four paws was taken as joint and bone destruction score, taking 50 points as maximum score.
# [3] = system: transcription factor AP-1 (nuclear extract protein prepared from HeLa cells); experiment: Activities on AP-1 binding reaction to recognition sequence (ELISA) using nuclear extract protein; conditions: 100 μM; ELISA using nucleus-extracted protein
# Method: as §1
# Nuclear extract protein containing transcription factor AP-1 prepared from HeLa cells was coated on 96-well ELISA plate (100 ng/well) in Hepes buffer (20 mM Hepes-potassium hydroxide (pH 7.9), 0,5 mM ethylenediamine-tetraacetic acid, 50 mM potassium chloride, 10% glycerol). After washing, a blocking treatment was carried out with bovine serum albumin, and then used for a binding assay using nuclear extract protein.
# as §2
compound,measurement,setting,value
"CC(C)COc1ccc(C(=O)c2ccc(OCC(C)C)c(CCC(=O)O)c2)c(OCC(C)C)c1 [Example 12, 3-[5-(2,4-diisobutoxybenzoyl)-2-isobutoxyphenyl]propionic acid]",inhibition at 200 µM,[1]; 200 μM,24%
same,inhibition at 500 µM,[1]; 500 μM,90%
same,arthritis score,"[2]; DBA/1J mice, 100 mg/kg orally once every day from 22nd to 36th day, 37th day from first inoculation, maximum score 12",3
same,joint and bone destruction score,"[2]; DBA/1J mice, 100 mg/kg orally once every day from 22nd to 36th day, X ray on 37th day, maximum score 50",10
same,inhibition at 100 mg/kg,[2]; read-out: inhibition rate as compared with control group (arthritis score),63%
same,inhibition at 100 mg/kg,[2]; read-out: inhibition rate as compared with control group (joint and bone destruction score),62%
CC(=O)NC1CSSCC(C(N)=O)NC(=O)CNC(=O)C(CC(C)C)NC(=O)C(C)NC(=O)C(CC(C)C)NC(=O)C(CO)NC(=O)C(CC(C)C)NC(=O)C(CCC(N)=O)NC(=O)CNC1=O (stereo not drawn) [3 (2)] (Ac-CGQLSLALGC-NH2; disulfide 1-10; configuration not given here),Inhibition rate,[3],94%
CC(=O)NC1CSSCC(C(N)=O)NC(=O)C(CC(=O)O)NC(=O)CNC(=O)C(CC(C)C)NC(=O)C(C)NC(=O)C(CC(C)C)NC(=O)C(CC(C)C)NC(=O)C(CC(N)=O)NC(=O)CNC1=O (stereo not drawn) [3 (10)] (Ac-CGNLLALGDC-NH2; disulfide 1-10; configuration not given here),Inhibition rate,[3],76%
CC(=O)NC1CSSCC(C(N)=O)NC(=O)CNC(=O)C(CC(=O)O)NC(=O)C(C)NC(=O)C(CC(C)C)NC(=O)C(CC(=O)O)NC(=O)C(CC(C)C)NC(=O)C(CC(N)=O)NC(=O)CNC1=O (stereo not drawn) [3 (6)] (Ac-CGNLDLADGC-NH2; disulfide 1-10; configuration not given here),Inhibition rate,[3],42%
